This is an account of results in ChEMBL document CHEMBL4229381, “New cytokinin derivatives possess UVA and UVB photoprotective effect on human skin cells and prevent oxidative stress” (Eur J Med Chem, 2018).

The source made the active and inactive calls. The rule behind the calls is not given here.

In data set [1] the test system is HaCaT. Put plainly: Cytoprotection against phototoxicity in human HaCaT cells assessed as increase in cell viability at 3.9 uM preincubated for 60 mins followed by 10 J/cm2 UVA irradiation and measured after 24 hrs by neutral red uptake assay. The data set is classed as functional, cell-based.
Data set [2] concerns HaCaT. Description: Potency index, ratio […] for cytoprotection against phototoxicity in human HaCaT cells assessed as increase in cell viability at 3.9 preincubated for 60 mins followed by 150 mJ/cm2 UVB irradiation and measured after 24 hrs by neutral red uptake assay. The data set is classed as functional.
For data set [3], the system named is HaCaT. Put plainly: Cytotoxicity in human HaCaT cells assessed as reduction in cell viability at 50 uM after 24 hrs by resazurin dye-based fluorescence assay relative to control. On the technique in general: Alamar Blue is a resazurin reagent that responds to reducing activity.
Data set [4] in a line: Cytotoxicity in human NHDF cells assessed as cell viability at 31.3 uM after 24 hrs by neutral red uptake assay relative to control. It counts as cell-based. To be noted: read-out: Activity.
Data set [5] can be described thus: Phototoxicity in human NHDF cells assessed as cell viability at 31.3 uM preincubated for 60 mins followed by 5 J/cm2 UVA irradiation and measured after 24 hrs by neutral red uptake assay relative to control. The data set is classed as cell-based. The note with it: read-out: Activity.
A short description of data set [6]: Cytotoxicity in human NHDF cells assessed as cell viability at 15.6 uM after 24 hrs by neutral red uptake assay relative to control. To be noted: read-out: Activity. It counts as cell-based.
Data set [7] in a line: Phototoxicity in human HaCaT cells assessed as cell viability at 15.6 uM preincubated for 60 mins followed by 7.5 J/cm2 UVA irradiation and measured after 24 hrs by neutral red uptake assay relative to control. The note with it: read-out: Activity. The data set is classed as cell-based.
Data set [8] is described as follows: Cytotoxicity in human HaCaT cells assessed as cell viability at 15.6 uM after 24 hrs by neutral red uptake assay relative to control. The data set is classed as cell-based. To be noted: read-out: Activity.
Data set [9] concerns NHDF. Put plainly: Cytoprotection against phototoxicity in human NHDF cells assessed as increase in cell viability at 3.9 to 31.3 uM preincubated for 60 mins followed by 150 mJ/cm2 UVB irradiation and measured after 24 hrs by neutral red uptake assay. It counts as functional, cell-based.
In a further data set the test system is BJ. Put plainly: Cytotoxicity in human BJ cells assessed as reduction in cell viability at 50 uM after 24 hrs by resazurin dye-based fluorescence assay relative to control.
Data set [10] in a line: Cytotoxicity in human NHDF cells assessed as cell viability at 7.8 uM after 24 hrs by neutral red uptake assay relative to control. The data set is classed as cell-based. The note with it: read-out: Activity.
Data set [11] is described as follows: Cytotoxicity in human NHDF cells assessed as cell viability at 62.5 uM after 24 hrs by neutral red uptake assay relative to control. The data set is classed as cell-based. To be noted: read-out: Activity.
A short description of data set [12]: Phototoxicity in human NHDF cells assessed as cell viability at 3.9 uM preincubated for 60 mins followed by 5 J/cm2 UVA irradiation and measured after 24 hrs by neutral red uptake assay relative to control. It counts as cell-based. To be noted: read-out: Activity.
A short description of data set [13]: Cytotoxicity in human HaCaT cells assessed as cell viability at 7.8 uM after 24 hrs by neutral red uptake assay relative to control. The note with it: read-out: Activity. The data set is classed as cell-based.
The nature of data set [14]: Phototoxicity in human HaCaT cells assessed as cell viability at 3.9 uM preincubated for 60 mins followed by 7.5 J/cm2 UVA irradiation and measured after 24 hrs by neutral red uptake assay relative to control. The data set is classed as cell-based. The note with it: read-out: Activity.
The test system of data set [15] is HaCaT. Description: Cytoprotection against phototoxicity in human HaCaT cells assessed as increase in cell viability at 3.9 to 31.3 uM preincubated for 60 mins followed by 150 mJ/cm2 UVB irradiation and measured after 24 hrs by neutral red uptake assay. The data set is classed as functional, cell-based.
The nature of data set [16]: Cytotoxicity in human HaCaT cells assessed as cell viability at 125 uM after 24 hrs by neutral red uptake assay relative to control. The note with it: read-out: Activity. It counts as cell-based.
Data set [17] can be described thus: Cytotoxicity in human HaCaT cells assessed as cell viability at 3.9 uM after 24 hrs by neutral red uptake assay relative to control. The note with it: read-out: Activity. The data set is classed as cell-based.
In data set [18] the test system is Amaranthus caudatus. Put plainly: Growth promoting activity in Amaranthus caudatus var. atropurpurea seeds by measuring betacyanin at 10^-4 mol/L after 48 hrs relative to control. The data set is classed as functional.
The nature of data set [19]: Cytotoxicity in human HaCaT cells assessed as cell viability at 31.3 uM after 24 hrs by neutral red uptake assay relative to control. The data set is classed as cell-based. The note with it: read-out: Activity.
The nature of data set [20]: Antioxidant activity assessed as trolox equivalent of AAPH-induced radical scavenging activity at 1 uM pretreated for 15 mins followed by […] challenge measured every 3 mins over 90 mins by ORAC-FL assay. The data set is classed as functional.
Data set [21] concerns HaCaT. Description: Potency index, ratio of compound effect to rosmarinic acid effect for cytoprotection against phototoxicity in human HaCaT cells assessed as increase in cell viability at 3.9 uM preincubated for 60 mins followed by 150 mJ/cm2 UVB irradiation and measured after 24 hrs by neutral red uptake assay. It counts as functional.
A short description of data set [22]: Cytotoxicity in human NHDF cells assessed as cell viability at 125 uM after 24 hrs by neutral red uptake assay relative to control. The note with it: read-out: Activity. The data set is classed as cell-based.
A short description of data set [23]: Cytotoxicity in human NHDF cells assessed as cell viability at 3.9 uM after 24 hrs by neutral red uptake assay relative to control. It counts as cell-based. The note with it: read-out: Activity.
The nature of data set [24]: Phototoxicity in human NHDF cells assessed as cell viability at 7.8 uM preincubated for 60 mins followed by 5 J/cm2 UVA irradiation and measured after 24 hrs by neutral red uptake assay relative to control. The data set is classed as cell-based. The note with it: read-out: Activity.
Data set [25] is described as follows: Cytotoxicity in human HaCaT cells assessed as cell viability at 62.5 uM after 24 hrs by neutral red uptake assay relative to control. It counts as cell-based. The note with it: read-out: Activity.
A short description of data set [26]: Phototoxicity in human HaCaT cells assessed as cell viability at 62.5 uM preincubated for 60 mins followed by 7.5 J/cm2 UVA irradiation and measured after 24 hrs by neutral red uptake assay relative to control. The data set is classed as cell-based. To be noted: read-out: Activity.
Data set [27] in a line: Phototoxicity in human NHDF cells assessed as cell viability at 125 uM preincubated for 60 mins followed by 5 J/cm2 UVA irradiation and measured after 24 hrs by neutral red uptake assay relative to control. It counts as cell-based. To be noted: read-out: Activity.
The subject of the next data set is Nicotiana tabacum. Description: Growth promoting activity in tobacco callus assessed as callus weight at 10^-5 mol/L after 4 weeks relative to control. It counts as functional.
A short description of data set [28]: Phototoxicity in human NHDF cells assessed as cell viability at 62.5 uM preincubated for 60 mins followed by 5 J/cm2 UVA irradiation and measured after 24 hrs by neutral red uptake assay relative to control. The data set is classed as cell-based. To be noted: read-out: Activity.
A short description of data set [29]: Phototoxicity in human HaCaT cells assessed as cell viability at 31.3 uM preincubated for 60 mins followed by 7.5 J/cm2 UVA irradiation and measured after 24 hrs by neutral red uptake assay relative to control. The data set is classed as cell-based. The note with it: read-out: Activity.
A short description of data set [30]: Phototoxicity in human HaCaT cells assessed as cell viability at 125 uM preincubated for 60 mins followed by 7.5 J/cm2 UVA irradiation and measured after 24 hrs by neutral red uptake assay relative to control. To be noted: read-out: Activity. It counts as cell-based.
The nature of data set [31]: Phototoxicity in human HaCaT cells assessed as cell viability at 7.8 uM preincubated for 60 mins followed by 7.5 J/cm2 UVA irradiation and measured after 24 hrs by neutral red uptake assay relative to control. It counts as cell-based. To be noted: read-out: Activity.
A short description of data set [32]: Phototoxicity in human NHDF cells assessed as cell viability at 15.6 uM preincubated for 60 mins followed by 5 J/cm2 UVA irradiation and measured after 24 hrs by neutral red uptake assay relative to control. The data set is classed as cell-based. The note with it: read-out: Activity.
The test system of the next data set is Triticum aestivum. Description: Anti-senescent activity in leaf of Triticum aestivum cv. Hereward seedlings by measuring chlorophyll retention at 10^-4 mol/L after 4 days relative to control. It counts as functional.
In data set [33] the test system is Amaranthus caudatus. Description: Growth promoting activity in Amaranthus caudatus var. atropurpurea seeds by measuring betacyanin at 10^-5 mol/L after 48 hrs relative to control. It counts as functional.
For data set [34], the system named is NHDF. Description: Cytoprotection against phototoxicity in human NHDF cells assessed as increase in cell viability at 3.9 to 31.3 uM preincubated for 60 mins followed by 7.5 J/cm2 UVA irradiation and measured after 24 hrs by neutral red uptake assay. It counts as functional, cell-based.
For data set [35], the system named is HaCaT. Put plainly: Phototoxicity in human HaCaT cells assessed as reduction in cell viability preincubated for 60 mins followed by 7.5 J/cm2 UVA irradiation and measured after 24 hrs by neutral red uptake assay. The note with it: light or radiation study. It counts as cell-based.
Data set [36] concerns NHDF. Put plainly: Phototoxicity in human NHDF cells assessed as reduction in cell viability preincubated for 60 mins followed by 5 J/cm2 UVA irradiation and measured after 24 hrs by neutral red uptake assay. It counts as cell-based. The note with it: light or radiation study.

For `Clc1nc(NCC2CCCO2)c2ncn(C3CCCO3)c2n1` (stereo not drawn), the result with HaCaT [1] was inactive. Moreover, the Ratio in the data set on HaCaT [2] and in the data set on HaCaT [21] was greater than 2 each time. The Activity in the data set on HaCaT [3] is less than 10%; with BJ, less than 10%; with Amaranthus caudatus [18], 83%; in data set [20] it was less than 0.05 equiv; in the data set with Nicotiana tabacum it was 104%; in the data set with Triticum aestivum it was 111%. Besides, the viability at 24 h, 31.3 µM amounted to 106% in data set [4], 103% in data set [5], 109% in data set [19] and 121% in data set [29]. In addition, the viability at 24 h, 15.6 µM in [6] stood at 101%; in [7], 110%; in data set [8], 104%; in data set [32] it was 100%. Further, the outcome in the data set with NHDF [9] and with HaCaT [15] was Active. Moreover, the viability at 24 h, 7.8 µM in [10] came to 103%; in data set [13] it was 103%; in data set [24] it was 103%; in data set [31], 112%. Besides, the viability at 24 h, 62.5 µM came out at 102% in data set [11], 111% in data set [25], 126% in [26] and 105% in data set [28]. The viability at 24 h, 3.9 µM in data set [12] was found to be 100%; in data set [14] it was 105%; in [17], 104%; in data set [23] it was 103%. In addition, the viability at 24 h, 125 µM in [16] was 111%; in data set [22] it was 104%; in [27], 105%; in data set [30], 126%.
Take `c1coc(CNc2ncnc3[nH]cnc23)c1` [KINETIN]: the Activity with Amaranthus caudatus [33] came to 68%; in data set [20] it was 0.71 equiv; with Nicotiana tabacum it was 101%; in the data set on Triticum aestivum, 98%. The result in the data set with NHDF [34] and in the data set on NHDF [9] was Active.
As for `CN(C)CCCN1c2ccccc2Sc2ccc(Cl)cc21` [CHLORPROMAZINE], the values for the IC50 in the data set with HaCaT [35] and in the data set on NHDF [36] were 36.1 µM and 25.5 µM, respectively.
